# Columns and labels:
# H1299/PR-2 cells = test: Colony survival assay, H1299/PR-2 pemetrexed-resistant subline; format: cell-based, human; settings: PR-2 vs H1299 parental
# Procedure: For cells in suspension, colony survival was determined by crystal violet staining of colonies formed after 10-day exposure of 5×10^3 cells to pemetrexed in soft agar. For adherent cells, colony survival was determined by methylene blue staining of colonies formed after 10-day exposure of 100 cells to pemetrexed in 6-well culture dishes. Only colonies containing ≥50 cells were counted. Data points represent percent of colonies relative to untreated control averaged over 3 experiments.
# H1299 cells were exposed to step-wise increasing concentrations of pemetrexed over a period of 4 months. UNG expression was monitored in the bulk population at 2, 8, 12 and 16 weeks prior to administration of the induction dosage and at 24 weeks in a population of bulk chronically exposed cells that had been without pemetrexed for 8 weeks. H1299 cells capable of growth in 50 nM pemetrexed selection pressure were subcloned by limiting dilution in 96 well plates. Independent sublines were designated H1299/PR-1 and H1299/PR-2.
# [1] = test system: uracil in DNA of UDG+/+ cells; test: Uracil in DNA by HPLC/MS/MS, UDG+/+ cells; format: cell-based, human; settings: pemetrexed 10 μM, 6-72 hr
# Procedure: UDG^−/− and UDG^+/+ cells were exposed to pemetrexed (10 μM) or 5-fluorouracil (10 μM) for 6, 24, 48 and 72 hrs. At indicated time points, cells were harvested and genomic DNA was extracted by phenol/chloroform. Forty μg of DNA were incubated with 10 U of purified UDG (New England Biolabs) in 60 μL of reaction buffer at 37° C. for 2 hrs. The reaction products were dried at 35° C. in a Turbovap under a stream of nitrogen and reconstituted in 150 μL 90% acetonitrile. The analyte was retained by an Atlantis Hilis Silica analytical column (2.1×100 mm, 3.5 μM) and eluted isocratically by a mixture of 90% acetonitrile and 10% 2.0 mM ammonium formate at a flow rate of 0.2 ml/min. The detection was done by an API 3200 MS/MS mass spectrometer.
# [2] = test system: A549 lung cancer xenografts; test: A549 xenograft tumors in nude mice; format: in vivo; settings: A549 tumours; pemetrexed 150 mg/kg, MX 4 mg/kg, i.p. daily for 5 days
# Procedure: H460 or A549 tumor cells (5×10^6) were injected into bilateral flanks of female athymic NCr (nu/nu) mice (6 weeks old). When the tumor volumes reached 100-150 mm3, mice were divided into control and treatment groups (6-9 mice/group). Nude mice carrying tumors were treated with pemetrexed (150 mg/kg) alone, MX (4 mg/kg) alone or the combination of the two agents, by daily intraperitonial injection (i.p.) for 5 consecutive days. Tumor measurements were taken every 2 days. Tumor responses were quantified by tumor volume.
# A549 cells = test: Clonogenic survival assay, A549 cells (Example 1); format: cell-based; settings: Homo sapiens, read-out: IC50 values for pemetrexed
# Procedure: Tumor cells (500-2000/dish) were plated and treated with pemetrexed (0-400 nM), 5-fluorouracil (0-20 μM), temozolomide (0-1500 μM), or cisplatin (0-40 μM). After 7 days, surviving colonies were stained with methylene blue for 30 min at room temperature and the colonies containing more than 50 cells were counted to generate survival curves.
# UDG+/+ cells = test: Replication foci stained with CldU and IdU, UDG+/+ cells; format: cell-based, human; settings: pemetrexed 25 nM, n=10 cells
# Procedure: DNA replication sites were visualized by incorporation of chlorodeoxyuridine (CldU) and iododeoxyuridine (IdU) into DNA. UDG^−/− and UDG^+/+ cells were labeled with 100 μM CldU (ICN, Irvine, Calif.) or IdU (Sigma Chemical Co., St. Louis, Mo.) for 45 min at different time intervals. Cells were washed with PBS, fixed with cold 70% ethanol, and stored at 4° C. For antibody staining, the ethanol was removed, and 100% methanol was added for 5 min. Cells were washed twice with PBS and incubated with 1.5 M HCl for 30 min to denature the DNA. Cells were washed with PBS, permeabilized with 0.5% Tween 20 in PBS for 5 min, and then incubated in 5% BSA (Sigma Chemical Co.) and in PBS for 20 min to reduce nonspecific binding. Primary antibodies CldU (rat anti-BrdU; Accurate Chemical and Science Co., Westbury, N.Y.) and IdU (mouse anti-BrdU; BD Biosciences) were diluted in 1% BSA buffer, added to the slides, and incubated in a humid environment for 2 hrs. Slides were washed with PBS-Tween 20 and then in a high-salt buffer (200 mM NaCl, 0.2% Tween 20, and 0.2% NP-40 in PBS) for 15 min. The samples were incubated with secondary antibodies for 1 h. Finally, slides were washed with PBSTween 20, mounted with Vectashield antifade mounting medium (Vector Laboratories, Inc., Burlingame, Calif.), and stored at 4° C. […] Fluorescence density of CldU or IdU was quantified by NIH image J software.
# [3] = test system: AP sites in DNA of UDG−/− cells; test: AP site assay (ARP), UDG−/− cells; format: cell-based, human; settings: pemetrexed 0-400 nM, 24 hrs
# Procedure: The number of AP sites was measured using ARP (aldehyde reactive probe) reagent. The assay was performed as previously described. Briefly, cells (2×10^6) were collected after drug treatment and DNA was extracted. DNA (10 μg) was incubated with 15 μl of 1 mM ARP (Dojindo Laboratories, Kumamoto, Japan), and then precipitated and washed with ice-cold ethanol. The ARP-labeled DNA was then heat-denatured at 100° C. for 5 min, quickly chilled on ice and mixed with an equal volume of 2 M ammonium acetate. The DNA was then immobilized on a BA-S 85 nitrocellulose membrane (Schleicher and Schuell, Dassel, Germany) using a minifold II vacuum filter device (Schleicher and Schuell, Dassel, Germany). The membrane was incubated with 0.25% BSA-PBS containing streptavidin-conjugated horseradish peroxidase (BioGenex, SanRamon, Calif.) at room temperature for 40 min with gentle shaking. ARP-labeled AP sites were visualized by chemiluminescence (Amersham Corp, Piscataway, N.J.) followed by quantitative densitometry using NIH Image J software.
structure (smiles),measurement,setting,value
Nc1nc2[nH]cc(CCc3ccc(C(=O)N[C@@H](CCC(=O)O)C(=O)O)cc3)c2c(=O)[nH]1 [pemetrexed],relative resistance to pemetrexed compared to parental cells,H1299/PR-2 cells,71 fold
same,uracil detected in DNA,[1],very low
same,antitumour activity,[2],moderately sensitive
same,IC50,A549 cells,1200 nM
same,ratio of IdU to CldU (fluorescence density),UDG+/+ cells; 6-hr sample,0.7±0.13
same,ratio of IdU to CldU (fluorescence density),UDG+/+ cells; 18-hr sample,0.9±0.31
same,AP sites in DNA,[3],lack of detectable AP sites

# From patent US10725042B2, “Methods of diagnosing and treating cancer” (Case Western Reserve University, priority 2012, dated 2020)
